Source: patent EP0325279A1, “Dehydrocholecalciferol derivatives” (F. HOFFMANN-LA ROCHE AG, priority 1988, dated 1989)
Several values for one entry are separate records, joined by “and”; a condition that tells them apart may be missing. Equal entries are not always repeated.

Experiments:
Assay type in all cases: cell-based
[1] = system: menschlicher promyelocytischer Tumorzellen HL-60; assay: Differentiation-inducing (DI) effect on HL-60 cells
Excerpt: (§1) Zum Nachweis der Aktivität der Verbindungen der Formel I als Mittel zur Behandlung von neoplastischen Krankheiten wurden die antiproliferativen (AP) und die Differenzierung induzierenden Effekte (DI) der Verbindungen A bis F sowie die Anzahl menschlicher promyelocytischer Tumorzellen HL-60 ermittelt. In Tabelle 6 ist der AP Effekt als prozentuale Reduktion der Anzahl Zellen und als Konzentration ID₅₀, die die Zellenanzahl um 50% reduziert, angegeben. Der DI Effekt ist angegeben als Prozentsatz der differenzierten Zellen und als Konzentration ED₅₀ der Verbindungen, die eine 50%ige Differenzierung der Zellen bewirkt.

[2] = system: Plattenepithel-Karzinomzellenlinien (SCC-15); assay: Number of squamous carcinoma cell line cells formed in presence of compound
Excerpt: (§2) Die Aktivität der Verbindungen der Formel I als Mittel für die Behandlung von hyperproliferativen Hautkrankheiten kann auch durch Ermittlung der Anzahl von menschlichen Keratinocyten, von verhornten Plattenepithelzellen und von Plattenepithel-Karzinomzellenlinien (SCC-115), die sich in Gegenwart der besagten Verbindungen bilden.
(§3) Die Resultate sind in den Tabellen 4 und 5 angegeben: Tabelle 4

[3] = system: menschlicher promyelocytischer Tumorzellen HL-60; assay: Antiproliferative (AP) effect on HL-60 cells
Excerpt: as §1

[4] = system: gezüchteten menschlichen Keratinocyten; assay: Morphological differentiation of cultured human keratinocytes (cell counts by cell type)
[5] = system: menschlichen Keratinocyten; assay: Number of human keratinocytes and cornified squamous cells formed in presence of compound
Excerpt: as §2, §3

[6] = Konzentration 0.01 (head prints x10 M)
[7] = Konzentration 0.1 (head prints x10 M)
[8] = Konzentration 1 (head prints x10 M)
[9] = Konzentration 10 (head prints x10 M)

EC50 ([1]; Homo sapiens, concentration that causes 50% differentiation of the cells, read-out: ED50 (the source's name)): 1 nM | IC50 ([3]; Homo sapiens, concentration that reduces the cell number by 50%, read-out: ID50 (the source's name)): 0.7 nM
Structure (SMILES): C=C1/C(=C\C=C2/CCC[C@]3(C)C([C@H](C)CC#CC(C)(C)O)=CC[C@@H]23)C[C@@H](O)C[C@@H]1O [Verbindung E]
Differenzierte Zellen (%) [1, 6]: 9% | Differenzierte Zellen (%) [1, 7]: 50% | Differenzierte Zellen (%) [1, 8]: 96% | Differenzierte Zellen (%) [1, 9]: 98% | Anzahl Zellenlinien (SCC-15) (x10⁵) ([2]; Dosis 10⁻¹² M): 6.98±1.68 x10⁵ | Anzahl Zellenlinien (SCC-15) (x10⁵) ([2]; Dosis 10⁻¹⁰ M): 5.89±1.58 x10⁵ | Anzahl Zellenlinien (SCC-15) (x10⁵) ([2]; Dosis 10⁻⁶ M): 0.40±0.98 x10⁵ and 0.49±0.13 x10⁵ | Anzahl Zellenlinien (SCC-15) (x10⁵) ([2]; Dosis 10⁻⁸ M): 5.76±1.53 x10⁵ | % Reduktion der Anzahl Zellen [3, 6]: 6% | % Reduktion der Anzahl Zellen [3, 7]: 59% | % Reduktion der Anzahl Zellen [3, 8]: 80% | % Reduktion der Anzahl Zellen [3, 9]: 81% | Anzahl Zellen (x10⁴): Basalzellen ([4]; Dosis 10⁻¹⁰ M): 63±2 x10⁴ | Anzahl Zellen (x10⁴): Gesamtanzahl ([4]; Dosis 10⁻¹⁰ M): 86±4 x10⁴ | Anzahl Zellen (x10⁴): Plattenepithelzellen ([4]; Dosis 10⁻¹⁰ M): 23±2 x10⁴ | Anzahl Zellen (x10⁴): verhornte Plattenepithelzellen ([4]; Dosis 10⁻¹⁰ M): 114±5 x10⁴ | Anzahl Zellen (x10⁴): Basalzellen ([4]; Dosis 10⁻⁶ M): 41±1 x10⁴ | Anzahl Zellen (x10⁴): Gesamtanzahl ([4]; Dosis 10⁻⁶ M): 78±3 x10⁴ | Anzahl Zellen (x10⁴): Plattenepithelzellen ([4]; Dosis 10⁻⁶ M): 27±2 x10⁴ | Anzahl Zellen (x10⁴): verhornte Plattenepithelzellen ([4]; Dosis 10⁻⁶ M): 147±4 x10⁴ | Anzahl Zellen (x10⁴): Basalzellen ([4]; Dosis 10⁻⁸ M): 53±2 x10⁴ | Anzahl Zellen (x10⁴): Gesamtanzahl ([4]; Dosis 10⁻⁸ M): 82±3 x10⁴ | Anzahl Zellen (x10⁴): Plattenepithelzellen ([4]; Dosis 10⁻⁸ M): 29±1 x10⁴ | Anzahl Zellen (x10⁴): verhornte Plattenepithelzellen ([4]; Dosis 10⁻⁸ M): 141±5 x10⁴ | Anzahl Keratinocten (x10⁴) ([5]; Dosis 10⁻¹² M): 187.36±15.33 x10⁴ | Anzahl verhornte Plattenepithelzellen (x10²) ([5]; Dosis 10⁻¹² M): 1136.63± 383.66 x10² | Anzahl Keratinocten (x10⁴) ([5]; Dosis 10⁻¹⁰ M): 175.34±10.19 x10⁴ | Anzahl verhornte Plattenepithelzellen (x10²) ([5]; Dosis 10⁻¹⁰ M): 1444.87± 312.47 x10² | Anzahl Keratinocten (x10⁴) ([5]; Dosis 10⁻⁶ M): 41.95± 7.53 x10⁴ | Anzahl verhornte Plattenepithelzellen (x10²) ([5]; Dosis 10⁻⁶ M): 1916.83± 887.66 x10² | Anzahl Keratinocten (x10⁴) ([5]; Dosis 10⁻⁸ M): 145.79±15.66 x10⁴ | Anzahl verhornte Plattenepithelzellen (x10²) ([5]; Dosis 10⁻⁸ M): 2113.62±1049.33 x10²
